# What was measured:
# Histone deacetylase = test: Inhibition of HDAC in human HeLa cell nuclear extracts by fluorimetric assay; assay type: protein assay
# HCT-116 = test: cells; assay type: functional; details: Homo sapiens, HCT-116, 72 h
# Description: Growth inhibition of human HCT116 cells after 72 hrs by SRB assay
# HeLa [1] = test: cells; assay type: functional; details: Homo sapiens, 72 h
# Description: Growth inhibition of human HeLa cells after 72 hrs by SRB assay
# U-937 = test: cells; assay type: functional; details: Homo sapiens, U-937, 72 h
# Description: Growth inhibition of human U937 cells after 72 hrs by SRB assay
# HuT78 = test: cells; assay type: functional; details: Homo sapiens, HuT78, 72 h
# Description: Growth inhibition of human HUT78 cells after 72 hrs by SRB assay
# HeLa [2] = test: Growth inhibition of human HeLa cells at 10 uM after 72 hrs by SRB assay; assay type: functional; details: read-out: GI
smiles,measurement,setting,value
O=C(NO)c1cnc(N2C[C@@H]3CN(S(=O)(=O)c4ccc(OC(F)(F)F)cc4)C[C@@H]3C2)nc1,IC50,Histone deacetylase,123 nM
same,GI50,HCT-116,530 nM
same,GI50,HeLa [1],940 nM
same,GI50,U-937,980 nM
same,GI50,HuT78,500 nM
O=C(NO)c1cnc(N2C[C@@H]3CN(S(=O)(=O)c4cc(C(F)(F)F)cc(C(F)(F)F)c4)C[C@@H]3C2)nc1,IC50,Histone deacetylase,433 nM
same,GI50,HCT-116,1700 nM
same,GI50,U-937,1250 nM
same,GI50,HuT78,700 nM
same,inhibition of growth at 10 µM,HeLa [2],42%
O=C(NO)c1cnc(N2C[C@H]3CN(Cc4ccc(Cl)cc4)C[C@H]3C2)nc1,IC50,Histone deacetylase,42 nM
same,GI50,HCT-116,490 nM
same,GI50,HeLa [1],690 nM
same,GI50,U-937,230 nM
same,GI50,HuT78,190 nM
O=C(NO)c1cnc(N2C[C@H]3CN(C(=O)CCCOc4ccccc4)C[C@H]3C2)nc1,IC50,Histone deacetylase,122 nM
same,GI50,HCT-116,1800 nM
same,GI50,HeLa [1],3950 nM
same,GI50,U-937,900 nM
same,GI50,HuT78,800 nM
COc1ccc(CN2C[C@@H]3CN(c4ncc(C(=O)NO)cn4)C[C@@H]3C2)cc1,IC50,Histone deacetylase,95 nM
same,GI50,HCT-116,900 nM
same,GI50,HeLa [1],950 nM
same,GI50,U-937,550 nM
same,GI50,HuT78,290 nM

# — ChEMBL document CHEMBL1268928, “Design and synthesis of novel pyrimidine hydroxamic acid inhibitors of histone deacetylases” (Bioorg Med Chem Lett, 2010)
